# Results taken from patent publication US8163795B2, “Chroman derivatives, medicaments and use in therapy” (Marshall Edwards, Inc., priority 2004, dated 2012).
# Where two headings read alike, the source gives them in different places.
# Columns and labels:
# MM200 melanoma cell line = experiment: HMC combination with topotecan (synergy); format: cell-based; conditions: for IC50: Table 11, single agent; for Change Factor (Combined): 5-day combination
# Description: IC50 values were determined for each cell line. Cells were seeded in 96-well plates at an appropriate cell density as determined from growth kinetics analysis and cultured for 5 days in the absence and presence of the test compounds. […] IC50 values were calculated from semi-log plots of % of control proliferation on the y-axis against log dose on the x-axis.
# 3-D model analysis of the cytotoxic interaction between drug A and drug B enables the representation of predicted inhibitory effect of two drugs in combination in 3 dimensions to reveal actual regions of synergy or antagonism. […] Theoretical Additivity was calculated from the cytotoxicities of drug A and drug B as monotherapies using the following formula which assumes the drugs are mutually exclusive inhibitors: […]
# HMC synergy with topotecan was assessed either in combination over 5 days exposure or in sequence (HMC→topotecan) against the MM200 melanoma cell line.
# [1] = HMC pharmacokinetics i.v. and i.p., mice; format: in vivo, female BALB/c mice; conditions: for concentration at 0.25 hr / concentration at 0.5 h / concentration at 4 hr / concentration at 24 hr / concentration at 1 hr: female, BALB/c, mouse, serum, 50 mg/kg; for concentration at 0.25 hr: 50 mg/kg in 20% HPBCD; for concentration at 0.5 h: 0.50 hr
# Description: HMC was prepared as a solution in 20% hydroxypropyl-beta-cyclodextrin (m:v, water). […] Three animals were allocated to each timepoint (15 min, 30 min, 1 hr, 4 hr and 24 hr). At each respective timepoint, animals were euthanased by cervical dislocation and blood collected. Urine was also collected and analysed for HMC. Free HMC was analysed by mass spectroscopy.
# [2] = system: MDA-MB-468 breast cancer cell line; experiment: Proliferation assay (MTT); format: cell-based; conditions: Homo sapiens, Breast MDA-MB-468, read-out: IC50
compound,measurement,setting,value
"COc1ccc(C2c3ccc(O)cc3OCC2c2ccc(O)cc2)cc1 (stereo not shown) [Compound 1, 3-(4-hydroxyphenyl)-4-(4-methoxyphenyl)chroman-7-ol]",IC50,"MM200 melanoma cell line; 120 h, 5 days exposure, read-out: IC50, Combined (monotherapy)",0.702 µM
same,chemosensitisation of MM200 cells to topotecan (change in IC50),"MM200 melanoma cell line; HMC 2 μM, HMC→topotecan sequence",> 1000 fold
same,IC50,"MM200 melanoma cell line; 24 hr exposure, read-out: IC50, 24 hr (monotherapy)",18 µM
same,Change Factor (HMC first),"MM200 melanoma cell line; Topotecan block, HMC 1 uM 24 hr then topotecan 24 hr",50.656
same,Change Factor (Combined),"MM200 melanoma cell line; Topotecan block, with HMC 1 uM",?HMC effect
same,Change Factor (Combined),"MM200 melanoma cell line; Topotecan block, with HMC 2 uM",?HCM effect
same,Change Factor (HMC first),"MM200 melanoma cell line; upper block of Table 11, HMC 2 uM first, sequence",>1000
same,Change Factor (Combined),"MM200 melanoma cell line; upper block of Table 11, HMC 2 uM",?HMC effect
same,free HMC in urine,[1]; 0.5 hr,3.3 mM
same,free HMC in urine,[1]; 1 hr,3.9 mM
same,serum concentration i.p. vs i.v.,[1]; 1 hr post administration,~4.5 fold
same,free HMC in urine,[1]; 4 hr,0.093 mM
same,concentration at 0.25 hr,[1]; ip,131 µM
same,concentration at 0.5 h,[1]; ip,31.8 µM
same,concentration at 4 hr,"[1]; ip, 4 hr",0.15 µM
same,concentration at 24 hr,[1]; ip,0.17 µM
same,concentration at 1 hr,"[1]; ip, i.p., 1 hr post administration, read-out: serum concentration",18.7 µM
same,concentration at 1 hr,"[1]; ip, ip, 1 hr, read-out: Serum HMC",18.7 µM
same,concentration at 0.25 hr,[1]; iv,1070 µM
same,concentration at 0.5 h,[1]; iv,199 µM
same,concentration at 4 hr,"[1]; iv, 4 hr",0.07 µM
same,concentration at 24 hr,[1]; iv,0.05 µM
same,concentration at 1 hr,"[1]; iv, i.v., 1 hr post administration, read-out: serum concentration",3.98 µM
same,concentration at 1 hr,"[1]; iv, iv, 1 hr, read-out: Serum HMC",3.98 µM
same,HMC in plasma,"[1]; i.p. administration, up to 1 hour post administration",131 µM
same,elimination kinetics,"[1]; i.p., hours 1-4 post administration",4.6 µM/h
same,elimination kinetics,"[1]; i.p., up to 1 hour post administration",112 µM/h
same,HMC in plasma,"[1]; i.v. administration, up to 1 hour post administration",1069 µM
same,level of HMC in blood,"[1]; i.v. in HPBCD, 15 min post administration",1000 µM
same,rate of excretion from blood,"[1]; i.v., first hr post administration",~1000 µM/h
same,rate of excretion from blood,"[1]; i.v., hours 1-4 post administration, assuming linear excretion",0.97 µM/h
same,serum concentration of free HMC i.p. vs orally delivered HMC,[1]; mice,~18 fold
same,IC50,"[2]; MDA-MB-468, Table 2.1",1.1 ± 0.35 µM
same,IC50,"[2]; MDA-MB-468, Table 2.2",2.8 ± 4.2 µM
